Values of other authors in patent publication US20050070607A1, “N-acetylcysteine compositions and methods for the treatment and prevention of cysteine/glutathione deficiency in diseases and conditions” (priority 2003, published 2005).
Read-outs that look alike come from different tables or passages of the source.

Legend:
[1] = tested on: influenza or influenza-like episodes; settings: frequency and severity of episodes, elderly and chronic non-respiratory disease; 1200 mg/day po; n 262; 6 months; De Flora 1997[46]
[2] = tested on: subjects classified as slow clearers; settings: .6 g oral daily, 60 days, Todisco 1985[38]
[3] = tested on: non-insulin dependent diabetic (NIDDM) patients
Malnourished children = settings: GSH synthesis rate and concentration; 0.5 mmol per kg per day; placebo alanine; n 32; 50 days; Badaloo 2002[54]
[4] = tested on: Contrast-induced nephropathy (CIN)
Sjogren's syndrome = settings: ocular soreness, ocular irritability, halitosis, daytime thirst; 200 mg daily; n 26; 6 weeks; Walters 1986[56]
[5] = tested on: premature infants with chronic lung disease; settings: intratracheal NAC 5%; total airway resistance, cyanotic spells; n 22; 24 hours; Bibi 1992[203]
[6] = tested on: patients with polycystic ovary syndrome; settings: circulating insulin levels and insulin sensitivity; 1.8-3 g daily depending on weight; n 33; 6 weeks; Fulghesu 2002[20]
[7] = tested on: Hepatic transplant patients; settings: oxygen delivery and consumption, base deficit; 150 mg/kg for 15 min; 12.5 mg/kg for 4 h; n 50; 5 hours; Bromley 1995[19]
[8] = tested on: colonic crypt epithelium of human volunteers who previously had adenomatous polyps; settings: Colon cancer; proliferative index; 800 mg NAC daily po; n 64; 12 weeks; Estensen 1999[55]
[9] = tested on: Sickle Cell Disease/Vaso-occlusive disease; settings: 2,400 mg daily, 12 months, Pace 2003[18]
[10] = tested on: patients with high plasma Lp(a); settings: plasma homocysteine; Lp(a) >0.3 g/l; 4000 mg daily po; n 11; 14 days; Wiklund 1996[277]
[11] = tested on: otitis media with effusion; settings: instillation into one ear; recurrence, VT re-insertion, time until VT extrusion; 0.05 ml Mucomyst solution at 1, 3 and 7 days; n 75; 39 months; Ovesen 2000[53]
cardiac risk patients = settings: oxygen consumption, cardiac index, ST-depression during brief hyperoxia; 150 mg/kg IV; n 30; 30 min; Spies 1996[11]
[12] = tested on: patients who have already developed fulminant hepatic failure; settings: observational study, one hundred patients [138]
[13] = tested on: normal subjects breathing against high inspiratory loads; settings: development of diaphragm fatigue; 150 mg/kg IV; n 4; 3 weeks; Travaline 1997[37]
Chronic blepharitis = settings: tear film quality (FBUT, mucous fern pattern); 300 mg/day po; n 40; 4 months; Yalcin 2002[57]

Structure (SMILES): CC(=O)N[C@@H](CS)C(=O)O [NAC, N-acetylcysteine]
- Beneficial effects [1]: Beneficial
- Beneficial effects ([2]; n 161): Beneficial
- improvement in mucociliary clearance ([2]; slow clearers): a 35% improvement in mucusalary
- Beneficial effects ([3]; erythrocyte GSH, GSH:GSSG ratio, plasma soluble VCAM-1, 1200 mg/day po, n 15, 1 month, De Mattia 1998[21]): Beneficial
- erythrocyte GSH concentration and rate of its synthesis ([3]; type 2 diabetics, two weeks of dietary supplementation, Jahoor ongoing study [197]): significant increases
- Treatment effect (Malnourished children): Beneficial
- RR (incidence of contrast-induced nephropathy) ([4]; 400 mg PO bid for 2 days, n 121, Shyu 2002[8]): contrast-induced nephropathy (RR 0.13)
- RR (incidence of post-catheterization nephropathy) ([4]; 600 mg PO bid, n 54, Diaz-Sandoval 2002[7]): 0.21) in patients with stable chronic renal
- relative risk, RR (reduction in renal function induced by iopromide) ([4]; 600 mg PO bid, n 83, Tepel[3-5]): contrast agent (relative risk, RR 0.10)
- reduction in the incidence of acute renal failure ([4]; 83 patients with baseline renal impairment, computed tomography with nonionic low-osmolality contrast agent, Tepel[3-5]): 90%
- Beneficial effects ([4]; chronic renal insufficiency, iopromide, 600 mg PO bid with hydration, n 83, 2 days, Tepel 2000, 2001, 2003[3-5]): Beneficial
- incidence of CIN by 48 hours ([4]; control 6.4%, 1500 mg for 4 doses, Oldemeyer 2003[188]): both groups was low (NAC 8.2%, control
- incidence of CIN at 48 hours ([4]; control 12%, 600 mg 4 times daily, Boccalandro 2003[187]): hours (NAC, 13%; control 12%) after
- RR (contrast-induced deterioration in renal function) ([4]; coronary angiographic procedures, 600 mg PO bid, n 200, Kay 2003[6]): adverse effects (RR 0.32). Kay, 2003[6]
- Beneficial effects ([4]; moderate chronic renal insufficiency, coronary angiographic procedures, 600 mg PO bid, n 200, 3 days, Kay 2003[6]): Beneficial
- Beneficial effects ([4]; oxidative stress-mediated proximal tubular injury, 1200 mg daily, n 24, 4 days, Drager 2004[271]): Beneficial
- Beneficial effects ([4]; serum creatinine > 1.2 mg/dL, elective coronary angiography, creatinine clearance at 24 and 96 hours, 1000 mg daily, n 49, 4 days, Efarti 2003[9]): Beneficial
- Beneficial effects ([4]; serum creatinine >= 1.5 mg/dL, elective cardiac catheterization, 600 mg 5 doses, n 43, 3 days, MacNeil 2003[10]): Beneficial
- Beneficial effects ([4]; stable chronic renal insufficiency, coronary angiography, 400 mg PO bid for 2 days, n 121, 7 days, Shyu 2002[8]): Beneficial
- Beneficial effects ([4]; stable chronic renal insufficiency, elective cardiac catheterization, 600 mg PO bid, n 54, 2 days, Diaz-Sandoval 2002[7]): Beneficial
- incidence of contrast nephropathy ([4]; subset receiving <140 mL contrast agent, from 8.5%, p=0.02, 183 patients [190]): 0%
- development of CIN by 72 hours ([4]; vs 32.2% placebo, P = 0.046, 600 mg 5 doses, MacNeil 2003[10]): catheterization (4.8% vs 32.2%, P =
- Beneficial effects (Exercise; frail geriatric patients, knee extensor strength, plasma TNF, 1800 mg daily, n 44, 6 weeks, Hauer 2003[59]): Beneficial
- Beneficial effects (Exercise; intense, intermittent exercise, reduced and oxidized GSH, 125 mg/kg/hr for 15 min, then 25 mg/kg/hr, n 8, Medved 2003[58]): Beneficial
- Beneficial effects (Exercise; prolonged submaximal exercise, well trained individuals, performance, 125 mg/kg/hr for 15 min, then 25 mg/kg/20 min, Medved 2004[286]): Beneficial
- Beneficial effects (Sjogren's syndrome): Beneficial
- Beneficial effects [5]: Adverse
- Beneficial effects [6]: Beneficial
- side effect reported for NAC treatment for inflammatory conditions (not found clinically significant [106]): mild to moderate anticoagulation
- adverse responses to intravenous NAC administration (several reports [163,249-256]): anaphylactoid and allergic responses
- Hearing loss and cochlear damage from aminoglycoside antibiotics and cisplatin (cochlea; animal models [245-247]): greatly reduced
- permanent cochlear damage due to acute acoustic overexposure (cochlea; animal models, systemic administration [246,248]): almost completely prevented
- time for elevated serum lactate levels to return to normal vs placebo (severe malaria; 300 mg/kg intravenously over 20 hours, 30 subjects [51]): twice as quickly
- Beneficial effects (severe malaria; quinine-treated malaria, serum lactate, 300 mg/kg IV, n 30, 20 hours, Watt 2002[51]): Beneficial
- Treatment effect [7]: Beneficial
- Treatment effect [8]: Beneficial
- apoptosis induction by cardioplegic arrest in left ventricular cardiac myocytes (Cardiac bypass; 100 mg/kg followed by infusion 20 mg/kg, n 36, Fischer 2004[270]): can effectively ne prevented by NAC.
- Beneficial effects (Cardiac bypass; oxidative burst response of peripheral neutrophils, 100 mg/kg bolus then 20 mg/kg continuous IV, n 12, 24 hours, Andersen 1995[16]): Beneficial
- vaso-occlusive episodes ([9]; decreased from 0.03): occlusive episodes (0.03 to 0.006 episodes episodes per person-days
- Beneficial effects ([9]; dense cell formation, glutathione levels, vaso-occlusive episodes, n 21): Beneficial
- Beneficial effects [10]: Beneficial
- Beneficial effects [11]: Beneficial
- Beneficial effects (cardiac risk patients): Beneficial
- survival [12]: significantly increased survival
- Beneficial effects [13]: Beneficial
- Beneficial effects (septic shock patients; Cardiac performance, MAP, cardiac index, left ventricular stroke work index, early administration 150 mg/kg over 15 min, 50 mg/kg over next 4 hrs, 100 mg/kg over next 24 hrs, n 20, 48 hours, Peake 1996[281]): Adverse
- Beneficial effects (septic shock patients; hepatosplanchnic flow and function, 150 mg/kg over 15 min before 12.5 mg/kg/hr for 90 min, n 60, 2 hours, Rank 2000[44]): Beneficial
- Beneficial effects (septic shock patients; respiratory function, ICU stay, IL-8, 150 mg/kg bolus then 50 mg/kg over 4 hr IV, n 22, 24 hours, Spapen 1998[43]): Beneficial
- Beneficial effects (septic shock patients; tissue oxygenation, survival of responders, 150 mg/kg for 15 min, then 12.5 mg/hr over 90 min IV, n 58, 2 hrs, Spies 1994[42]): Beneficial
- Beneficial effects (acute lung injury; RBC GSH, days of acute lung injury, cardiac index, NAC 70 mg/kg q 8 hr IV, OTZ 63 mg/kg q 8 hr IV, n 48, 10 days, Bernard 1997[222]): Beneficial
- Beneficial effects (acute lung injury; elastase activity, pretreatment 72 mg/kg bolus, 72 mg/kg over 12 hours IV, n 18, 12 hours, De Backer 1996[214]): Beneficial
- Beneficial effects (acute lung injury; mild-to-moderate ALI, systemic oxygenation, need for ventilatory support, 40 mg/kg/day IV, n 61, 3 days, Suter 1994[211]): Beneficial
- Beneficial effects (Chronic blepharitis): Beneficial
